Test results from patent US7034013B2 (priority 2001, dated 2006).
Converted amounts (≈) assume the structure as drawn. Where two headings read alike, the source gives them in different places.

What was measured:
hemolysis = details: in concentrations typically used to solubilize pharmaceutical formulations; FIG. 1 (Thompson 1997); cited from earlier work
[1] = for concentration of uncomplexed propofol in solution / concentration of uncomplexed propofol in solution, % of the total: binding constant 3800 M^−1
[2] = in the absence of a solubilizing agent; cited from earlier work
[3] = intravenous injection of a therapeutic dose; cited from earlier work
physchem = details: water, solubility in water
[4] = CAPTISOL cyclodextrin 14.4% w/v (0.0665M)
[5] = CAPTISOL cyclodextrin 50% w/v (0.231M)

| Molecule | hemolytic behavior (hemolysis) | CAPTISOL® cyclodextrin concentration required to raise aqueous propofol from 0.15 mg/mL to 10 mg/mL ([1]; propofol 10 mg/mL) [% w/v] | water solubility [2] | time to induction of anesthesia from the start of injection [3] [s] | solubility in water [µg/mL] | concentration of uncomplexed propofol in solution [1, 4] [M] | concentration of uncomplexed propofol in solution, % of the total [1, 4] | concentration of uncomplexed propofol in solution [1, 5] [M] | concentration of uncomplexed propofol in solution, % of the total [1, 5] | solubility (physchem) [µg/mL] |
| --- | --- | --- | --- | --- | --- | --- | --- | --- | --- | --- |
| Sulfobutyl Ether-β-Cyclodextrin [CAPTISOL® cyclodextrin] | essentially no hemolytic behavior | 15 | – | – | – | – | – | – | – | – |
| CC(C)c1cccc(C(C)C)c1O [propofol, 2,6-diisopropylphenol] | – | – | approximately 0.154 mg/mL | ≤ 40 | 150 (≈ 841 µM) | ~0.00124 | about 2.21% | ~0.000084 | about 0.15% | ~150 (≈ 841 µM) |
